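Dose response: 5 concentrations. Exposure: 48 h. Format: 96-well plates. Endpoint: linear interpolation; highest concentration if not reached. Abbreviation: GI50, concentration required for 50% inhibition of growth.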 Calls of active or inactive are those of the source. Cut-off read from the data, not from the text of the source: active = GI50 up to about 1.1 µM and inactive = higher.
Experiments:
Assay in all cases: NCI tumour cell line growth inhibition, 48 h
NCI-H522 = tested on: NCI-H522
COLO 205 = tested on: COLO 205
SK-OV-3 = tested on: SK-OV-3
OVCAR-8 = tested on: OVCAR-8
NCI-H23 = tested on: NCI-H23
DU-145 = tested on: DU-145
RPMI-8226 = tested on: RPMI-8226
T47D = tested on: T47D
MDA-MB-435 = tested on: MDA-MB-435
SK-MEL-5 = tested on: SK-MEL-5
SF-539 = tested on: SF-539
A549 = tested on: A549
M14 = tested on: M14
UACC-62 = tested on: UACC-62
SW-620 = tested on: SW-620
BT-549 = tested on: BT-549
Hs-578T = tested on: Hs-578T
SK-MEL-2 = tested on: SK-MEL-2
RXF 393 = tested on: RXF 393
SNB-19 = tested on: SNB-19
SN12C = tested on: SN12C
HCC 2998 = tested on: HCC 2998
OVCAR-5 = tested on: OVCAR-5
K562 = tested on: K562
HCT-15 = tested on: HCT-15
CCRF-CEM = tested on: CCRF-CEM
PC-3 = tested on: PC-3
SR = tested on: SR
LOX IMVI = tested on: LOX IMVI
UO-31 = tested on: UO-31
EKVX = tested on: EKVX
MCF7 = tested on: MCF7
OVCAR-3 = tested on: OVCAR-3
U-251 = tested on: U-251
SNB-75 = tested on: SNB-75
SF-268 = tested on: SF-268
HCT-116 = tested on: HCT-116
NCI/ADR-RES = tested on: NCI/ADR-RES
KM12 = tested on: KM12
TK-10 = tested on: TK-10
HT-29 = tested on: HT-29
NCI-H460 = tested on: NCI-H460
OVCAR-4 = tested on: OVCAR-4
786-0 = tested on: 786-0
UACC-257 = tested on: UACC-257
Malme-3M = tested on: Malme-3M
ACHN = tested on: ACHN
IGROV-1 = tested on: IGROV-1
HL-60 = tested on: HL-60
NCI-H226 = tested on: NCI-H226
SK-MEL-28 = tested on: SK-MEL-28
HOP-62 = tested on: HOP-62
CAKI-1 = tested on: CAKI-1
MDA-MB-231 = tested on: MDA-MB-231
SF-295 = tested on: SF-295
MOLT-4 = tested on: MOLT-4
HOP-92 = tested on: HOP-92
MDA-N = tested on: MDA-N
A498 = tested on: A498

COc1cc2c(cc1OCCCCCCCCN1C(=O)c3cccc4cccc(c34)C1=O)N=C[C@@H]1CCCN1C2=O
GI50 (NCI-H522): 12 µM (inactive) | GI50 (COLO 205): 4.71 µM (inactive) | GI50 (SK-OV-3): 1.79 µM (inactive) | GI50 (OVCAR-8): 14.9 µM (inactive) | GI50 (NCI-H23): 15.1 µM (inactive) | GI50 (DU-145): 50.2 µM (inactive) | GI50 (RPMI-8226): 2.96 µM (inactive) | GI50 (T47D): 73.6 µM (inactive) | GI50 (MDA-MB-435): 14.3 µM (inactive) | GI50 (SK-MEL-5): 12.7 µM (inactive) | GI50 (SF-539): 3.45 µM (inactive) | GI50 (A549): 20 µM (inactive) | GI50 (M14): 37.3 µM (inactive) | GI50 (UACC-62): 13.5 µM (inactive) | GI50 (SW-620): 18.7 µM (inactive) | GI50 (BT-549): 12.6 µM (inactive) | GI50 (Hs-578T): 22.1 µM (inactive) | GI50 (SK-MEL-2): 14.6 µM (inactive) | GI50 (RXF 393): 12.4 µM (inactive) | GI50 (SNB-19): 35.3 µM (inactive) | GI50 (SN12C): 22.2 µM (inactive) | GI50 (HCC 2998): 14.2 µM (inactive) | GI50 (OVCAR-5): 20.4 µM (inactive) | GI50 (K562): 3.87 µM (inactive) | GI50 (HCT-15): 12.8 µM | GI50 (CCRF-CEM): 2.82 µM (inactive) | GI50 (PC-3): 7.45 µM (inactive) | GI50 (SR): 4.07 µM (inactive) | GI50 (LOX IMVI): 6.89 µM (inactive) | GI50 (UO-31): 17.2 µM (inactive) | GI50 (EKVX): 2.37 µM (inactive) | GI50 (MCF7): 3.71 µM (inactive) | GI50 (OVCAR-3): 11.1 µM (inactive) | GI50 (U-251): 6.62 µM (inactive) | GI50 (SNB-75): 1.11 µM (active) | GI50 (SF-268): 15 µM (inactive) | GI50 (HCT-116): 19.1 µM (inactive) | GI50 (NCI/ADR-RES): 3.27 µM (inactive) | GI50 (KM12): 16.3 µM (inactive) | GI50 (TK-10): 29.7 µM (inactive) | GI50 (HT-29): 15.7 µM (inactive) | GI50 (NCI-H460): 20.7 µM (inactive) | GI50 (OVCAR-4): 0.171 µM (active) | GI50 (786-0): 23.6 µM (inactive) | GI50 (UACC-257): 26.2 µM (inactive) | GI50 (Malme-3M): 21 µM (inactive) | GI50 (ACHN): 16 µM (inactive) | GI50 (IGROV-1): 3.11 µM (inactive) | GI50 (HL-60): 13.8 µM (inactive) | GI50 (NCI-H226): 14.7 µM (inactive) | GI50 (SK-MEL-28): 17.9 µM (inactive) | GI50 (HOP-62): 42 µM (inactive) | GI50 (CAKI-1): 13.3 µM (inactive) | GI50 (MDA-MB-231): 8.63 µM (inactive) | GI50 (SF-295): 15.6 µM (inactive) | GI50 (MOLT-4): 3.48 µM (inactive)

Cc1cc(-c2cscn2)c(O)c([N+](=O)[O-])c1
GI50 (COLO 205): 28.3 µM (inactive) | GI50 (HOP-92): 93.5 µM (inactive) | GI50 (SK-OV-3): 16.1 µM (inactive) | GI50 (OVCAR-8): 48.3 µM (inactive) | GI50 (NCI-H23): 58.3 µM (inactive) | GI50 (RPMI-8226): 52.6 µM (inactive) | GI50 (MDA-MB-435): 74.3 µM (inactive) | GI50 (SK-MEL-5): 31 µM (inactive) | GI50 (SF-539): 56 µM (inactive) | GI50 (A549): 46.6 µM (inactive) | GI50 (M14): 90.4 µM (inactive) | GI50 (UACC-62): 62.7 µM (inactive) | GI50 (SW-620): 75.7 µM (inactive) | GI50 (BT-549): 77.6 µM (inactive) | GI50 (Hs-578T): 90.8 µM (inactive) | GI50 (SK-MEL-2): 85.1 µM (inactive) | GI50 (SNB-19): > 100 µM (inactive) | GI50 (SN12C): 45 µM (inactive) | GI50 (HCC 2998): 81.3 µM (inactive) | GI50 (OVCAR-5): > 100 µM (inactive) | GI50 (K562): 34.2 µM (inactive) | GI50 (HCT-15): 38.4 µM | GI50 (CCRF-CEM): 41 µM (inactive) | GI50 (PC-3): 41.4 µM (inactive) | GI50 (LOX IMVI): 29.4 µM (inactive) | GI50 (UO-31): 50.2 µM (inactive) | GI50 (EKVX): 65.8 µM (inactive) | GI50 (MCF7): 21.4 µM (inactive) | GI50 (HCT-116): 49.7 µM (inactive) | GI50 (NCI/ADR-RES): 46.5 µM (inactive) | GI50 (MDA-N): 74.3 µM (inactive) | GI50 (TK-10): 52.7 µM (inactive) | GI50 (HT-29): 89.3 µM (inactive) | GI50 (NCI-H460): 34.2 µM (inactive) | GI50 (OVCAR-4): 82.6 µM (inactive) | GI50 (786-0): 60.8 µM (inactive) | GI50 (UACC-257): 63.8 µM (inactive) | GI50 (Malme-3M): 70.6 µM (inactive) | GI50 (ACHN): 37.2 µM (inactive) | GI50 (IGROV-1): 55 µM (inactive) | GI50 (HL-60): 34.8 µM (inactive) | GI50 (A498): 28.7 µM (inactive) | GI50 (HOP-62): 52.7 µM (inactive) | GI50 (CAKI-1): 43 µM (inactive) | GI50 (SF-295): 0.906 µM (active)

O=C(O)CC[N+]1=CCC(c2ccccc2)(c2ccccc2)O1
GI50 (NCI-H522): > 100 µM (inactive) | GI50 (COLO 205): > 100 µM (inactive) | GI50 (HOP-92): > 100 µM (inactive) | GI50 (SK-OV-3): > 100 µM (inactive) | GI50 (OVCAR-8): > 100 µM (inactive) | GI50 (NCI-H23): > 100 µM (inactive) | GI50 (DU-145): > 100 µM (inactive) | GI50 (T47D): > 100 µM (inactive) | GI50 (MDA-MB-435): > 100 µM (inactive) | GI50 (SK-MEL-5): > 100 µM (inactive) | GI50 (SF-539): > 100 µM (inactive) | GI50 (A549): > 100 µM (inactive) | GI50 (M14): > 100 µM (inactive) | GI50 (UACC-62): > 100 µM (inactive) | GI50 (SW-620): > 100 µM (inactive) | GI50 (BT-549): > 100 µM (inactive) | GI50 (Hs-578T): > 100 µM (inactive) | GI50 (SK-MEL-2): > 100 µM (inactive) | GI50 (RXF 393): > 100 µM (inactive) | GI50 (SNB-19): > 100 µM (inactive) | GI50 (SN12C): > 100 µM (inactive) | GI50 (HCC 2998): > 100 µM (inactive) | GI50 (OVCAR-5): > 100 µM (inactive) | GI50 (K562): > 100 µM (inactive) | GI50 (HCT-15): > 100 µM | GI50 (PC-3): > 100 µM (inactive) | GI50 (UO-31): > 100 µM (inactive) | GI50 (EKVX): > 100 µM (inactive) | GI50 (MCF7): > 100 µM (inactive) | GI50 (OVCAR-3): > 100 µM (inactive) | GI50 (U-251): > 100 µM (inactive) | GI50 (SNB-75): 44.1 µM (inactive) | GI50 (SF-268): > 100 µM (inactive) | GI50 (HCT-116): > 100 µM (inactive) | GI50 (MDA-N): > 100 µM (inactive) | GI50 (TK-10): > 100 µM (inactive) | GI50 (HT-29): > 100 µM (inactive) | GI50 (NCI-H460): > 100 µM (inactive) | GI50 (OVCAR-4): > 100 µM (inactive) | GI50 (786-0): > 100 µM (inactive) | GI50 (UACC-257): > 100 µM (inactive) | GI50 (ACHN): > 100 µM (inactive) | GI50 (IGROV-1): > 100 µM (inactive) | GI50 (NCI-H226): > 100 µM (inactive) | GI50 (SK-MEL-28): > 100 µM (inactive) | GI50 (A498): > 100 µM (inactive) | GI50 (HOP-62): > 100 µM (inactive) | GI50 (CAKI-1): > 100 µM (inactive) | GI50 (MDA-MB-231): > 100 µM (inactive) | GI50 (SF-295): > 100 µM (inactive) | GI50 (MOLT-4): > 100 µM (inactive)

Reference: ChEMBL document CHEMBL1201862, “PubChem BioAssay data set” (2004)
